In patent EP0007398A1, “N-thio-N-methyl carbamic acid derivative, process for its preparation, its application and pesticides containing it” (priority 1978, dated 1980):
Read-outs that look alike come from different tables or passages of the source.

Assays:
[1] = tested on: Leptinotarsa decemlineata, Kartoffelkäfer; assay: Initial activity on potato leaf discs; type: in vivo; details: foliar, 96 h, read-out: % Wirkung
Procedure: Testinsekt: Leptinotarsa decemlineata, Kartoffelkäfer Testmethode: Initialwirkung auf Blattrondellen
Kartoffelblattrondellen werden mit acetonischer Wirk- stofflösung besprüht. Pro Rondelle werden 5 frischgeschlüpfte Larven des ersten Stadiums angesetzt und bei 25°C und 60% rel. Feuchtigkeit inkubiert. Unbehandelte und mit Aceton behandelte Blattrondellen dienen als Kontrolle. Testdauer: 4 Tage. Die Resultate werden ausgedrückt als prozentuale Reduktion der Ueberlebensrate der Larven im Vergleich zu den Kontrollparzellen.

[2] = tested on: Aedes aegypti, Gelbfiebermücke; assay: Initial activity in water against larvae; type: in vivo; details: 168 h
Procedure: Testinsekt: Aedes aegypti, Gelbfiebermücke Testmethode: Initialwirkung im Wasser
0,2 ml acetonische Wirkstofflösung werden mit 20 ml Leitungswasser gemischt. Pro Parzelle werden 10 Larven im letzten Larvenstadium angesetzt und bei 25°C und 60% rel. Feuchtigkeit inkubiert bis zum Schlüpfen der Adulten in den Kontrollparzellen. Unbehandeltc und mit Aceton behandelte Parzellen dienen als Kontrollen. Testdauer: 7 Tage. Die Wirkung wird ausgedrückt als prozentuale Reduktion der Zahl normaler Adulter im Vergleich zu den Kontrollparzellen.

[3] = Acute oral toxicity in the mouse; details: in vivo, Maus, read-out: akute orale Toxizität
Procedure: Die Verbindung wirkt als direktes Insektizid. Sie hat auch systemische Aktivität. Sie zeichnet sich unter Praxisbedingungen durch eine besonders günstige Wirkungsdauer aus. Die Verbindung ist ferner von Wert für die Bekämpfung von Schädlingen bei Tieren. So zeigt beispielsweise die Verbindung der Formel I in einer Konzentration von 10^-7 g/ml im Test gegen Aedes aegypti eine Wirkung von 100%. Die akute orale Toxizität an der Maus beträgt mehr als 1000 mg/kg.

UV stability = type: physicochemical; details: qualitative statement
Water solubility = type: physicochemical; details: qualitative statement
From the text: Die Verbindung der Formel I ist wasserunlöslich und kann nach irgendeiner der für unlösliche Verbindungen üblichen Methoden konfektioniert werden.

[4] = tested on: Epilachna chrysomelina, Gurkenkäfer; assay: Persistence test on treated pumpkin plants (7 days at 30°C with UV irradiation before infestation); type: in vivo; details: 168 h, wettable powder per Beispiel 2, 7 days 30°C + UV, then 10 first-instar larvae per plant, reduction of survival rate vs control, read-out: % Wirkung
Procedure: Testinsekt: Epilachna chrysomelina, Gurkenkäfer Testmethode: Persistenztest
(§1) Kürbispflanzen werden bis zum Abtropfen behandelt. Nach dem Antrocknen werden die Pflanzen in einem Ecophyten bei 30°C und UV-Bestrahlung während 7 Tagen inkubiert. Nach der Inkubation werden pro Pflanze 10 Larven des ersten Stadiums angesetzt. Die Resultate werden ausgedrückt als prozentuale Reduktion der Ueberlebensrate der Epilachna-Larven im Vergleich zu den Kontrollparzellen.
Die Formulierung der Wirkstoffe erfolgte gemäss Beispiel 2. ai = Wirkstoff

[5] = tested on: Leptinotarsa decemlineata, Kartoffelkäfer; assay: Persistence test on treated potato plants (7 days at 30°C with UV irradiation before infestation); type: in vivo; details: 168 h, wettable powder per Beispiel 2, 7 days 30°C + UV, then 10 first-instar larvae per plant, reduction of survival rate vs control, read-out: % Wirkung
Procedure: Testinsekt: Leptinotarsa decemlineata, Kartoffelkäfer Testmethode: Persistenztest
as §1, with “Kartoffelpflanzen” for “Kürbispflanzen”, “Leptinotarsa-Larven” for “Epilachna-Larven”
Die Formulierung der Wirkstoffe erfolgte gemäss Beispiel 2 ai = Wirkstoff

| SMILES | mortality at 1e-09 g/cm2 [1] | mortality at 1e-08 g/cm2 [1] | mortality at 1e-07 g/cm2 [1] | mortality at 0.01 µg/mL ([2]; read-out: % Wirkung) | mortality at 0.1 µg/mL ([2]; read-out: % Wirkung) | mortality at 1 µg/mL ([2]; read-out: % Wirkung) | mortality at 0.1 µg/mL ([2]; read-out: Wirkung) | LD50 [3] | UV-Stabilität (UV stability) | Wasserlöslichkeit (Water solubility) | mortality at 0.01 % ([4]; Konz. 0,01 % ai) | mortality at 0.03 % ([4]; Konz. 0,03 % ai) | mortality at 0.01 % ([5]; Konz. 0,01 % ai) | mortality at 0.03 % ([5]; Konz. 0,03 % ai) | mortality at 1e-07 g/cm2 ([1]; Dosis 10^-7 g ai/cm^2, acetone solution, first-instar larvae, 25°C, 60% rel. humidity, 4 days, reduction of survival rate vs control) | mortality at 1e-08 g/cm2 ([1]; Dosis 10^-8 g ai/cm^2, acetone solution, first-instar larvae, 25°C, 60% rel. humidity, 4 days, reduction of survival rate vs control) | mortality at 1e-09 g/cm2 ([1]; Dosis 10^-9 g ai/cm^2, acetone solution, first-instar larvae, 25°C, 60% rel. humidity, 4 days, reduction of survival rate vs control) | mortality at 1 µg/mL ([2]; Dosis 10^-6 g ai/ml Wasser, last-instar larvae, 25°C, 7 days, reduction of number of normal adults vs control, read-out: % Wirkung) | mortality at 0.1 µg/mL ([2]; Dosis 10^-7 g ai/ml Wasser, last-instar larvae, 25°C, 7 days, reduction of number of normal adults vs control, read-out: % Wirkung) | mortality at 0.01 µg/mL ([2]; Dosis 10^-8 g ai/ml Wasser, last-instar larvae, 25°C, 7 days, reduction of number of normal adults vs control, read-out: % Wirkung) |
| --- | --- | --- | --- | --- | --- | --- | --- | --- | --- | --- | --- | --- | --- | --- | --- | --- | --- | --- | --- | --- |
| CN(SN(C)C(=O)Oc1cccc2c1OC(C)(C)O2)C(=O)Oc1cccc2c1OC(C)(C)O2 [Formel I, Bis-[2,3-(isopropylidendioxy)-phenyl]-thio-bis-N-methylcarbamat] | 0% | 79% | 100% | 13% | 100% | 100% | 100% | > 1000 mg/kg | hohe UV-Stabilität | wasserunlöslich |  |  |  |  |  |  |  |  |  |  |
| CNC(=O)Oc1cccc2c1OC(C)(C)O2 [Formel II] |  |  |  |  |  |  |  |  |  |  | 30% | 100% | 5% | 95% | 100% | 8% | 0% | 100% | 2% | 0% |
